Molecular target: T1, H^+ +K^+ ATPase (Sus scrofa, UniProt P19156)
T1 construct: prepared from porcine stomach; from tissue; host or cells: porcine stomach
Assay: H+ +K+ ATPase inhibition (inorganic phosphoric acid release)
Format: biochemical
Settings: enzyme prepared from porcine stomach; 30 min with compound at room temperature, pH 6.1; then 30 min at 37° C., pH 7.4, 20 mM KCl
Description: H^+ +K^+ ATPase (adenosine triphosphatase) (amount of protein: 10 μg) prepared from porcine stomach was added to a Pipes-TRIS [i.e. 2-amino-2-(hydroxymethyl)-1,3-propanediol] buffer solution (pH 6.1) containing 2 mM of piperazine N,N'-bis(2-ethanesulfonic acid), and the mixture was let stand at room temperature. A test compound was dissolved in dimethyl formamide, and the mixture was added to said H^+ +K^+ ATPase buffer solution so that the final concentration should be 1% and let stand for reaction for 30 minutes at room temperature. Then a 75 mM Pipes-TRIS buffer (1 ml, pH 7.4) (containing 4 mM MgCl2, 4 mM Na2 ATP, and 20 mM KCl) and a 75 mM Pipes-TRIS buffer (1 ml, pH 7.4) (containing 4 mM MgCl2, and 4 mM Na2 ATP) were added to the solution individually to make two kinds of samples and these samples were presented for reaction for 30 minutes at 37° C. 40% Trichloroacetic acid (0.3 ml) was added to each sample to stop the reaction. The solution were subjected to centrifugal separation (3000 rpm) for 10 minutes, and the supernatant was taken off, then the formed inorganic phosphoric acid was measured by Fiske and Subbarow's method [J. Biol. Chem. vol. 66, 375 (1925)]. The value of deducting the amount of inorganic phosphoric acid taken from the Pipes-Tris buffer not containing 20 mM KCl from that taken from the Pipes-Tris buffer containing 20 mM KCl was calculated in terms of unit protein and unit hour to be defined as an activity index of enzyme. Inhibition level (%) in doses of administration was estimated by control values and activity indices of enzyme, and from the obtained inhibition level (%), IC50 (dose of administration of compounds to inhibit in 50%) was obtained.

T1 sequence (P19156 2-1034 limits assumed): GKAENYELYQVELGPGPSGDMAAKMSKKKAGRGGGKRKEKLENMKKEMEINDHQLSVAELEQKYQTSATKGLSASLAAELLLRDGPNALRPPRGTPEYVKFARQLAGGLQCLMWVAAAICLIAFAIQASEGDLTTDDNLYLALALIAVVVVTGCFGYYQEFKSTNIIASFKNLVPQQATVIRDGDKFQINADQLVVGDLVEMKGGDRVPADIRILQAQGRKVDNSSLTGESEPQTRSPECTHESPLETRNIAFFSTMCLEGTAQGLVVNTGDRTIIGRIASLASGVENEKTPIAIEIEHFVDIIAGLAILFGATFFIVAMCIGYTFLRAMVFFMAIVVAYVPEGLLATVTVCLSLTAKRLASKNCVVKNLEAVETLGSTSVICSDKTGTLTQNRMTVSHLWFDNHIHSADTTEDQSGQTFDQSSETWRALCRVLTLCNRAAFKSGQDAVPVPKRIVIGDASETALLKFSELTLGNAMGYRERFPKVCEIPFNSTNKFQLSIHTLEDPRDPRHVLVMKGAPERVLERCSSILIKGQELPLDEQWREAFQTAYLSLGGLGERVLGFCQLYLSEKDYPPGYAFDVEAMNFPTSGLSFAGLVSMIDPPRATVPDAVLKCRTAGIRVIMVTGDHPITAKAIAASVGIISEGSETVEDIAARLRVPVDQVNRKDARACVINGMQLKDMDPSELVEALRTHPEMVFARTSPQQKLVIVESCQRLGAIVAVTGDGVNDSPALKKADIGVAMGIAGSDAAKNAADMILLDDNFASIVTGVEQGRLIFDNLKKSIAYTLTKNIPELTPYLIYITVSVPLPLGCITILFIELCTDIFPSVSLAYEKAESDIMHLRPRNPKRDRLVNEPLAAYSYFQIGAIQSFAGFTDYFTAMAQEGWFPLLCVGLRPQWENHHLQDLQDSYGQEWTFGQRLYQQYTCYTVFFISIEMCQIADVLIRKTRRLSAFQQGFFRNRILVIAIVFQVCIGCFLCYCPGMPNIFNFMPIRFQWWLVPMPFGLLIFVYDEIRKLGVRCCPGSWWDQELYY
T1 sequence (P18434 whole entry partner): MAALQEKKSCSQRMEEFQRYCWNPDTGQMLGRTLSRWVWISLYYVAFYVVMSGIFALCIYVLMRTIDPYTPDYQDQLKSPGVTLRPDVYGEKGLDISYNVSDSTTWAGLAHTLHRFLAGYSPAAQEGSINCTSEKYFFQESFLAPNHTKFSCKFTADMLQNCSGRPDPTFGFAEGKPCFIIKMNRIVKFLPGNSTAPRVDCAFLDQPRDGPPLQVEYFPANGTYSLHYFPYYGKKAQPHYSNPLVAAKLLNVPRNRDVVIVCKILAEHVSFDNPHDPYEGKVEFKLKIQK

Q: Which IC50 does the source give for `C=CCN(Cc1ccc(OC)cc1)C1CCN(CC)c2c(C[S+]([O-])c3nc4cc(F)c(OC)cc4[nH]3)cccc21` (stereo not drawn) [Test compound No. 70, 1-ethyl-8-(5-fluoro-6-methoxy-2-benzimidazolyl)sulfinylmethyl-4-[N-allyl-N-(4-methoxybenzyl)]amino1,2,3,4-tetrahydroquinoline] here?
A: The IC50 was 3.8 µM.

Q: `C=CCN(C)C1CCNc2c(C[S+]([O-])c3nc4cc(F)c(OC)cc4[nH]3)cccc21` (stereo not drawn) [Test compound No. 71, 8-(5-fluoro-6-methoxy-2-benzimidazolyl)sulfinylmethyl-4-(N-allyl-N-methyl)amino-1,2,3,4-tetrahydroquinoline] was tested. Which IC50 did it give?
A: Its IC50 is 5.7 µM.

Q: `CCN1CC=C(C(F)(F)F)c2cccc(C[S+]([O-])c3nc4ccccc4[nH]3)c21` (stereo not drawn) [Test compound No. 72, 1-ethyl-8-(2-benzimidazolyl)sulfinylmethyl-4-trifluoromethyl-1,2-dihydroquinoline] was tested. Which IC50 did it give?
A: The IC50 was 3.3 µM.

— patent publication US4963566A, “Benzimidazolyl-sulfinyl-tetrahydroquinolines” (Otsuka Pharmaceutical Co., Ltd., priority 1986, dated 1990)
